What all share (type): functional
The subject of one assay is Lemna minor. Kind of assay: Herbicidal activity against Lemna minor (common duckweed) at 1 ppm after 9 days relative to control.
The test system of assay [1] is Parastagonospora nodorum. Kind of assay: Antifungal activity against Phaeosphaeria nodorum on wheat plant at 25 ppm after 24 hr.
The test system of assay [2] is Parastagonospora nodorum. Nature of the assay: Antifungal activity against Phaeosphaeria nodorum on wheat plant assessed as disease control at 100 ppm after 24 hr.
For another assay, the system named is Puccinia recondita. Kind of assay: Antifungal activity against Puccinia recondita on wheat plant assessed as disease control at 100 ppm after 24 hr.
The next assay relates to Rhizoctonia solani. Nature of the assay: Antifungal activity against Rhizoctonia solani on rice plant at 25 ppm after 24 hr.
The subject of assay [3] is Blumeria graminis f. sp. tritici. Nature of the assay: Antifungal activity against Blumeria graminis f. sp. tritici on wheat plant assessed as disease control at 100 ppm after 24 hr.
A further assay relates to Zymoseptoria tritici. Kind of assay: Antifungal activity against Zymoseptoria tritici on wheat plant at 25 ppm after 24 hr.
In another assay the test system is Pyricularia oryzae. Kind of assay: microbe, parasite or virus in culture. The following applies: 24 h.
For a further assay, the system named is Phytophthora infestans. Kind of assay: microbe, parasite or virus in culture. The following applies: in Oryza sativa, 24 h.
The subject of a further assay is Ustilago maydis. Nature of the assay: Antifungal activity against Ustilago maydis on rice plant at 25 ppm after 24 hr. The following applies: Mycosarcoma maydis.
The subject of assay [4] is Agrostis stolonifera var. palustris. Kind of assay: Herbicidal activity against Agrostis stolonifera var. palustris at 1 ppm after 9 days relative to control.

A word on the inhibition: it is the drop in the measured response relative to a control, in per cent. Low readings indicate a weak effect, high ones a strong effect. For the molecule `COc1cc2c(cc1OC)-c1c(C)c3ccc(OC)c(OC)c3c[n+]1CC2.[Cl-]`, the Activity with Lemna minor is 65%; with Parastagonospora nodorum [2], 0%; in the assay with Puccinia recondita, 0%; in assay [3], 0%; in assay [4], 0%. Besides, the inhibition at 25 ppm with Parastagonospora nodorum [1], in the assay on Rhizoctonia solani, with Zymoseptoria tritici, in the assay on Pyricularia oryzae, in the assay with Phytophthora infestans and in the assay with Ustilago maydis was 0% in each case.
Take `CCc1c2[n+](cc3c(OC)c(OC)ccc13)CCc1cc(OC)c(OC)cc1-2.[Cl-]`: the Activity with Lemna minor amounted to 70%; in the assay on Parastagonospora nodorum [2] it was 0%; in the assay on Puccinia recondita, 0%; in assay [3], 0%; in [4], 0%. The inhibition at 25 ppm in the assay with Parastagonospora nodorum [1], in the assay with Rhizoctonia solani, in the assay with Zymoseptoria tritici, in the assay with Pyricularia oryzae, in the assay on Phytophthora infestans and in the assay with Ustilago maydis was 0% in each case.
Turning to `CCCc1c2[n+](cc3c(OC)c(OC)ccc13)CCc1cc(OC)c(OC)cc1-2.[Cl-]`, the Activity in the assay on Lemna minor turned out to be 65%; with Parastagonospora nodorum [2], 73%; in the assay on Puccinia recondita, 0%; in [3], 0%; in assay [4], 0%. For the same molecule, the inhibition at 25 ppm in the assay on Parastagonospora nodorum [1], with Rhizoctonia solani, in the assay on Zymoseptoria tritici, with Pyricularia oryzae, with Phytophthora infestans and in the assay with Ustilago maydis was 0% throughout.
On to `CCCCc1c2[n+](cc3c(OC)c(OC)ccc13)CCc1cc3c(cc1-2)OCO3.[Cl-]`, for which the Activity in the assay on Lemna minor was 60%; with Parastagonospora nodorum [2], 67%; in the assay with Puccinia recondita it was 0%; in assay [3] it was 0%; in [4], 0%. The inhibition at 25 ppm in the assay on Parastagonospora nodorum [1] was found to be 0%; in the assay on Rhizoctonia solani it was 0%; with Zymoseptoria tritici, 90%; in the assay with Pyricularia oryzae, 0%; in the assay with Phytophthora infestans it was 0%; in the assay on Ustilago maydis, 0%.
Regarding `CCCCCCc1c2[n+](cc3c(OC)c(OC)ccc13)CCc1cc3c(cc1-2)OCO3.[Cl-]`, the Activity with Lemna minor is 60%; in the assay on Parastagonospora nodorum [2], 87%; with Puccinia recondita, 83%; in assay [3] it was 0%; in assay [4], 0%. In addition, the inhibition at 25 ppm was 0% with Parastagonospora nodorum [1]; 0% in the assay with Rhizoctonia solani; 100% with Zymoseptoria tritici; 0% in the assay with Pyricularia oryzae; 0% in the assay on Phytophthora infestans; 0% with Ustilago maydis.
Consider `CCCc1c2[n+](cc3c(OC)c(OC)ccc13)CCc1cc3c(cc1-2)OCO3.[Cl-]`, for which the Activity in the assay on Lemna minor worked out at 65%; with Parastagonospora nodorum [2] it was 67%; with Puccinia recondita, 0%; in assay [3], 0%; in [4], 0%. In addition, the inhibition at 25 ppm was 0% in the assay with Parastagonospora nodorum [1]; 0% in the assay with Rhizoctonia solani; 90% in the assay with Zymoseptoria tritici; 0% in the assay on Pyricularia oryzae; 0% in the assay with Phytophthora infestans; 0% in the assay with Ustilago maydis.
For `COc1ccc2c(C)c3[n+](cc2c1OC)CCc1cc2c(cc1-3)OCO2.[Cl-]`, the Activity in the assay on Lemna minor turned out to be 75%; in the assay on Parastagonospora nodorum [2], 0%; in the assay on Puccinia recondita, 75%; in assay [3], 0%; in [4], 0%. The inhibition at 25 ppm in the assay with Parastagonospora nodorum [1] came to 0%; with Rhizoctonia solani it was 0%; in the assay on Zymoseptoria tritici it was 80%; in the assay on Pyricularia oryzae it was 0%; with Phytophthora infestans, 0%; in the assay with Ustilago maydis it was 0%.
As to `CCc1c2[n+](cc3c(OC)c(OC)ccc13)CCc1cc3c(cc1-2)OCO3.[Cl-]`, the Activity with Lemna minor amounted to 70%; with Parastagonospora nodorum [2], 60%; in the assay on Puccinia recondita, 58%; in assay [3] it was 0%; in assay [4] it was 0%. Also, the inhibition at 25 ppm in the assay with Parastagonospora nodorum [1] is 0%; in the assay with Rhizoctonia solani it was 0%; in the assay with Zymoseptoria tritici it was 90%; in the assay on Pyricularia oryzae, 0%; with Phytophthora infestans it was 0%; with Ustilago maydis, 0%.
In the case of `CCOc1c(OC)ccc2c(CC)c3[n+](cc12)CCc1cc2c(cc1-3)OCO2.[Cl-]` [9-O-ETHYL-13-ETHYLBERBERRUBINE], the Activity with Lemna minor was determined as 70%; in the assay with Parastagonospora nodorum [2], 87%; in the assay on Puccinia recondita, 8%; in assay [3], 0%; in assay [4], 0%. Also, the inhibition at 25 ppm in the assay on Parastagonospora nodorum [1] worked out at 0%; in the assay with Rhizoctonia solani, 0%; in the assay with Zymoseptoria tritici, 90%; in the assay on Pyricularia oryzae, 0%; in the assay on Phytophthora infestans it was 0%; in the assay with Ustilago maydis, 0%.
With `CCOc1c(OC)ccc2cc3[n+](cc12)CCc1cc2c(cc1-3)OCO2.[Cl-]` [9-O-ETHYLBERBERRUBINE], the Activity with Lemna minor is on record as 70%; in the assay on Parastagonospora nodorum [2], 0%; in the assay on Puccinia recondita, 75%; in assay [3], 0%; in assay [4], 0%. Also, the inhibition at 25 ppm with Parastagonospora nodorum [1] worked out at 0%; in the assay with Rhizoctonia solani, 0%; with Zymoseptoria tritici, 90%; in the assay on Pyricularia oryzae it was 0%; in the assay with Phytophthora infestans, 0%; in the assay on Ustilago maydis it was 0%.
Turning to `CCCCCCc1c2[n+](cc3c(OC)c(OC)ccc13)CCc1cc(OC)c(OC)cc1-2.[Cl-]` [13-HEXYLPALMATINE], the Activity in the assay with Lemna minor came to 70%; in the assay with Parastagonospora nodorum [2] it was 80%; with Puccinia recondita, 67%; in assay [3] it was 0%; in assay [4], 0%. In addition, the inhibition at 25 ppm in the assay on Parastagonospora nodorum [1] worked out at 0%; in the assay on Rhizoctonia solani, 0%; with Zymoseptoria tritici it was 100%; in the assay with Pyricularia oryzae it was 0%; in the assay with Phytophthora infestans, 0%; in the assay on Ustilago maydis, 0%.
For the molecule `COc1ccc2c(O)c3[n+](cc2c1OC)CCc1cc2c(cc1-3)OCO2.[Cl-]` [13-HYDROXYBERBERINE], the Activity in the assay on Lemna minor is recorded as 0%; in the assay with Parastagonospora nodorum [2] it was 0%; in the assay on Puccinia recondita, 67%; in assay [3], 41%; in [4] it was 0%. In addition, the inhibition at 25 ppm is 0% with Parastagonospora nodorum [1]; 0% in the assay on Rhizoctonia solani; 0% in the assay with Zymoseptoria tritici; 0% with Pyricularia oryzae; 40% in the assay on Phytophthora infestans; 0% in the assay on Ustilago maydis.
Regarding `COc1ccc2cc3[n+](cc2c1OC)CCc1cc2c(cc1-3)OCO2.[Cl-]` [BERBERINE CHLORIDE], the Activity turned out to be 75% in the assay with Lemna minor; 0% in the assay with Parastagonospora nodorum [2]; 0% with Puccinia recondita; 0% in assay [3]; 0% in assay [4]. In addition, the inhibition at 25 ppm came out at 0% with Parastagonospora nodorum [1]; 0% with Rhizoctonia solani; 90% in the assay on Zymoseptoria tritici; 0% with Pyricularia oryzae; 0% with Phytophthora infestans; 0% in the assay on Ustilago maydis.
For `COc1ccc2cc3[n+](cc2c1O)CCc1cc2c(cc1-3)OCO2` [BERBERRUBINE], the Activity (with Lemna minor; in the assay on Parastagonospora nodorum [2]; in the assay on Puccinia recondita; in [3]; in assay [4]) was 0% throughout. Further, the inhibition at 25 ppm in the assay on Parastagonospora nodorum [1], in the assay with Rhizoctonia solani, in the assay with Zymoseptoria tritici, in the assay on Pyricularia oryzae, in the assay on Phytophthora infestans and in the assay on Ustilago maydis was 0% throughout.
On to `COc1cc2c(cc1OC)-c1cc3ccc(OC)c(OC)c3c[n+]1CC2.[Cl-]` [PALMATINE CHLORIDE], for which the Activity (with Lemna minor; with Parastagonospora nodorum [2]; in the assay with Puccinia recondita; in assay [3]; in assay [4]) was 0% in each case. The inhibition at 25 ppm in the assay with Parastagonospora nodorum [1] was found to be 0%; in the assay with Rhizoctonia solani, 0%; with Zymoseptoria tritici, 80%; in the assay with Pyricularia oryzae, 0%; in the assay with Phytophthora infestans it was 0%; in the assay on Ustilago maydis it was 0%.
`COc1cc2c(cc1OC)-c1cc3ccc(OC)c(O)c3c[n+]1CC2.[Cl-]` [PALMATRUBINE]: the Activity (in the assay on Lemna minor; in the assay on Parastagonospora nodorum [2]; with Puccinia recondita; in assay [3]; in assay [4]) was 0% throughout. In addition, the inhibition at 25 ppm in the assay with Parastagonospora nodorum [1], in the assay on Rhizoctonia solani, in the assay with Zymoseptoria tritici, in the assay on Pyricularia oryzae, with Phytophthora infestans and in the assay on Ustilago maydis was 0% throughout.

Values taken from ChEMBL document CHEMBL3046565, “Fungicidal and herbicidal activities of berberine related alkaloids” (2000).
